Laboratory results reported in ChEMBL document CHEMBL4190392, “Enhancing Action of Positive Allosteric Modulators through the Design of Dimeric Compounds” (J Med Chem, 2018).
pEC50: −log10 of the molar value.

Molecular target: Glutamate receptor 2 (Homo sapiens, UniProt P42262)
Assay: Positive allosteric modulation of GluA2Q flop isoform (unknown origin) expressed in HEK293 cells assessed as increase in L-glutamate induced calcium flux after 1 hr by fluo-4AM dye-based fluorescence assay
Format: cell-based
Conditions: for pEC50: read-out: EC50; for EC50: read-out: pEC50 (converted)

Sequence of Glutamate receptor 2 (P42262 whole entry, canonical isoform): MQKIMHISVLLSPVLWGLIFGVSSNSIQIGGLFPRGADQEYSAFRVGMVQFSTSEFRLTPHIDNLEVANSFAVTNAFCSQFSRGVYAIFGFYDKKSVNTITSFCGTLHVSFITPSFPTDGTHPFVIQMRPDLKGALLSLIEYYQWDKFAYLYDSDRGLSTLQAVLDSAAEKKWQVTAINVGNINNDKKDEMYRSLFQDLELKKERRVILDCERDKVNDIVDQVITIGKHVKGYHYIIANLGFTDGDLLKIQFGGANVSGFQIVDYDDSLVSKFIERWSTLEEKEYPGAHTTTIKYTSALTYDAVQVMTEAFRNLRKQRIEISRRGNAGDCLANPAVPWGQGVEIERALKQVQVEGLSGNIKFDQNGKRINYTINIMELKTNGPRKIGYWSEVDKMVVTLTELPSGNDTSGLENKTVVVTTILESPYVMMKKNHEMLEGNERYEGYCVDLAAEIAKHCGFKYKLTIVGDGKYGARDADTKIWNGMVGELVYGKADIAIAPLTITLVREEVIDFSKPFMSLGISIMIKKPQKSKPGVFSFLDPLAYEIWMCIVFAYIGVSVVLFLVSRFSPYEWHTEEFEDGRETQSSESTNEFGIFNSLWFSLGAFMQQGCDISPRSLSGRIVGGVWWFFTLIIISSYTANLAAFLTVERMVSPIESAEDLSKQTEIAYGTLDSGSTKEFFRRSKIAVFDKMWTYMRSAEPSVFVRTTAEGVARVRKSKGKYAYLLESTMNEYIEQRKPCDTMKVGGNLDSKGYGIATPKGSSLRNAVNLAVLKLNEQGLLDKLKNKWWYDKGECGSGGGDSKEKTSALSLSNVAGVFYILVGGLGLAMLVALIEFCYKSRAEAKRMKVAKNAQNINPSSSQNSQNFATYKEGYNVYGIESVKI

CN1CNS(=O)(=O)c2ccccc21
pEC50: 3.75

O=S1(=O)NCN(C2CC2)c2ccccc21
pEC50: 5.04

CN1CNS(=O)(=O)c2ccc(CCc3ccc4c(c3)N(C)CNS4(=O)=O)cc21
pEC50: 7.87 | EC50: 0.0145 µM

Cc1ccc2c(c1)N(C1CC1)CNS2(=O)=O
pEC50: 4.32 | EC50: 49 µM

Cc1ccc2c(c1)N(C)CNS2(=O)=O
pEC50: 3.39

O=S1(=O)NCN(C2CC2)c2cc(CCc3ccc4c(c3)N(C3CC3)CNS4(=O)=O)ccc21
pEC50: 8.85
